pKd, pKi: −log10 of the molar value.
Experiments:
Format in all cases: binding, Bubalus bubalis
[1] = biological target: T1, OBP1a (bnOBP isoform 1a; also printed 1OBPa); assay: fluorescence titration; conditions: 50 mM Tris-HCl, 300 mM NaCl, pH 8.0; 2 µM protein; fluorescent probe; read-out: dissociation constant
T1 construct: gene OBP

[2] = biological target: T1, OBP1a (bnOBP isoform 1a; also printed 1OBPa); assay: competitive 1-NPN displacement fluorescence; conditions: 2 µM protein, 2 µM 1-NPN, 50 mM Tris-HCl, 300 mM NaCl, pH 8.0; competitive with 1-NPN
[3] = biological target: T1, OBP1a (bnOBP isoform 1a; also printed 1OBPa); assay: competitive 1-NPN displacement fluorescence; conditions: 2 µM protein, 2 µM 1-NPN, 50 mM Tris-HCl, 300 mM NaCl, pH 8.0; competitive with 1-NPN; remark: listed apart in the source
Source text: competitive 1-NPN displacement fluorescence on OBP1a (bnOBP isoform 1a; also printed 1OBPa)

Structure (SMILES)	pKd [1]	pKi [2]	pKi [3]
c1ccc(Nc2cccc3ccccc23)cc1 [N-phenyl-1-naphthylamine]	6.15	–	–
CCCCCCCC/C=C\CCCCCCCC(=O)O [oleic acid]	–	5.38	–
Cc1ccc(O)cc1 [p-cresol]	–	5.46	3.58

— publication doi:10.1101/2020.09.17.301234v1, “Molecular and functional characterization of buffalo nasal epithelial odorant binding proteins and their structural insights by in-silico and biochemical approach” (biorxiv, 2020)
